Values joined by “and” are separate entries in the source; they are usually repeats but may differ in a detail not shown here. Equal values may be shown once.
Columns and labels:
RAS GTPase = target: T1, RAS GTPase (Homo sapiens, UniProt P01116, G12C); test: H358 Cellular Active RAS GTPase ELISA; type: cell-based; conditions: H358 cells, 2 hours; n=4; read-out: relative IC50
T1 construct: endogenous in cells; host or cells: H358 (ATCC CRL-5807)
Excerpt: The purpose of this assay is to measure the ability of test compounds to inhibit constitutive RAS GTPase activity in human lung cancer cells H358 (ATCC CRL-5807). The RAS GTPase ELISA kit (Active Motif Cat #52097) contains a 96-well plate pre-coated with glutathione in order to capture a kit-supplied GST-Raf-RBD protein. Activated RAS (GTP-bound) in cell extracts specifically bind to the Raf-RBD. Bound RAS is detected with a primary antibody that recognizes human KRas. A secondary antibody conjugated with HRP recognizes the primary antibody and a development solution provides a chemiluminescent readout.
H358 cells are plated at 80,000 cells/well in 90 μL serum free media (RPMI 1640, GIBCO) and incubated overnight at 37° C./5% CO2. The next morning, 10 μL of serially-diluted (3-fold) test compounds (500 μM top concentration) and 10 μL of controls (Maximum signal wells: 5% DMSO and Minimum signal wells: 500 μM 1-[4-[6-chloro-8-fluoro-7-(3-hydroxy-1-naphthyl)quinazolin-4-yl]piperazin-1-yl]prop-2-en-1-one, WO2015054572 as an inhibitor) are added to the cell plate and incubated for 2 hours at 37° C./5% CO2. […] The assay plate is then read on an EnVision™ Plate Reader (Perkin Elmer) using a luminescence program. […]
Compounds within the scope of this invention are evaluated in this assay substantially as described above.

NCI-H1792 = test: In vitro combination proliferation assay (4 day, Cell TiterGlo), NCI-H1792; type: cell-based; conditions: NCI-H1792, 4 day growth assay, absolute IC50
Procedure: Eleven cell lines for this study are obtained from ATCC and grown under ATCC recommended conditions. All cell lines have a KRAS G12C mutation, and they are […] lung cancer cell lines (H358, H1373, H1792, H2030, H2122, SW1573 and HCC44), two colorectal cancer cell lines (SW837 and SW1463), one pancreatic cancer cell line (MiaPaca-2), and one esophageal cancer cell line (KYSE410). The proliferation assay is performed as a 4 day growth assay using Cell TiterGlo® as the readout. Briefly, cells are plated in 96-well cell culture plates and allowed to adhere overnight at 37° C. The following day, cells are treated with compounds, either single treatments or combination treatments. First, the testing compounds are serially diluted in DMSO, followed by dilution into media as a 5×concentration with 1% DMSO, and finally added to cells in media to dilute to 1×. […] At the end of the incubation period, Cell TiterGlo® reagent is mixed and added to the wells. After 10 minutes, the luminescence is read by a Perkin Elmer Envision instrument. Absolute IC50 values generated by a 4-parameter logistics model for the single and combination treatments are generated, followed by combination indexes for each combination treatment and cell line. The combination IC50 values are adjusted based on the total concentration of each compound when added together. […] The combination index (CI) measures the degree to which the potency of a combination therapy differs from the expected-if-additive potency and is based on the Loewe definition of additivity.
• CA,y and CB,y are the concentrations of therapies A and B that produce an effect, y, when given in combination • ICA,y and ICB,y are the concentrations of A and B that produce an effect, y, when given individually
In some cases, if an estimated IC50 value is used for CI calculation, the calculated CI is called Potentiation Index. The biological interpretation of the combination or potentiation index is as follows: synergistic if the combination or potentiation index <0.5, additive if the combination or potentiation index is between 0.5 and 2, and antagonistic if the combination index or potentiation is >2.
Similar combinational effects are observed with carboplatin and cisplatin combination.

T1 sequence (P01116 1-188 isoform P01116-2 G12C): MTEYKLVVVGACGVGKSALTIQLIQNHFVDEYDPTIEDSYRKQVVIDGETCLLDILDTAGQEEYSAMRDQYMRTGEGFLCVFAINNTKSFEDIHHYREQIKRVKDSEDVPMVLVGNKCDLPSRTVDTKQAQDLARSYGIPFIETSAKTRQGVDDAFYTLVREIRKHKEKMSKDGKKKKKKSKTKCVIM

Structure (SMILES) | IC50 (RAS GTPase) | IC50, single treatment (Compound IC50 / Example 35 IC50 / ABS_IC50) (NCI-H1792)
C=CC(=O)N1CCN2C(=O)c3cc(Cl)c(-c4ccc(F)c5sc(N)nc45)c(Cl)c3OCC[C@H]2C1 (atropisomer, axis not shown) [Example 1, (13aS)-9-(2-Amino-7-fluoro-1,3-benzothiazol-4-yl)-8,10-dichloro-2-prop-2-enoyl-1,3,4,12,13,13a-hexahydropyrazino[2,1-d][1,5]benzoxazocin-6-one] | 6.72 nM | –
C=CC(=O)N1CCN2C(=O)c3cc(F)c(-c4ccc(F)c5sc(N)c(C#N)c45)c(Cl)c3OCC[C@H]2C1 [Example 35, 4-[(13aS)-10-Chloro-8-fluoro-6-oxo-2-prop-2-enoyl-1,3,4,12,13,13a-hexahydropyrazino[2,1-d][1,5]benzoxazocin-9-yl]-2-amino-7-fluoro-benzothiophene-3-carbonitrile] | – | 862.9 nM and 839.9 nM

Reference: US20230339968A1, “KRAS Gl2C INHIBITORS” (Eli Lilly and Company, priority 2019, published 2023)
